Assay results published in ChEMBL document CHEMBL4359928, “Scaffold Morphing To Identify Novel DprE1 Inhibitors with Antimycobacterial Activity” (ACS Med Chem Lett, 2019).
In brackets after ≈: the same amount, converted by molar mass.

Columns and labels:
Type in all cases: functional
[1] = tested on: Mycobacterium tuberculosis; assay: Antimycobacterial activity against 1,4-azaindole resistant Mycobacterium tuberculosis H37Rv harbouring DprE1 Y314H mutant assessed as reduction in bacterial cell growth
[2] = tested on: Mycobacterium tuberculosis; assay: Antimycobacterial activity against BTZ043-resistant Mycobacterium tuberculosis H37Rv harbouring DprE1 C387S mutant assessed as reduction in bacterial cell growth
[3] = tested on: Mycobacterium tuberculosis; assay: Antimycobacterial activity against BTZ043-resistant Mycobacterium tuberculosis H37Rv harbouring DprE1 C387G mutant assessed as reduction in bacterial cell growth
[4] = tested on: Mycobacterium tuberculosis; assay: Antimycobacterial activity against Mycobacterium tuberculosis H37Rv harbouring DprE1 Y314S mutant assessed as reduction in bacterial cell growth
[5] = tested on: Mycobacterium tuberculosis; assay: Ratio of MIC for Mycobacterium tuberculosis H37Rv overexpressing DprE1 to MIC for wild type Mycobacterium tuberculosis H37Rv
[6] = tested on: Mycobacterium tuberculosis; assay: Antimycobacterial activity against Mycobacterium tuberculosis H37Rv overexpressing DprE1 assessed as reduction in bacterial cell growth
[7] = tested on: Mycobacterium tuberculosis; assay: Ratio of MIC for 1,4 azaindole-resistant Mycobacterium tuberculosis H37Rv harboring DprE1 Y314H mutant to MIC for wild type Mycobacterium tuberculosis H37Rv
[8] = Mycobacterium tuberculosis, H37Rv, read-out: MIC

Compound | MIC [1] | MIC [2] | MIC [3] | MIC [4] | Ratio [5] | MIC [6, 8] | Ratio [7] | MIC [6]
COc1ncnc(Cn2cnc3c(C(=O)NCCF)cccc32)c1C | 25 to 50 µM | 0.78 µM (≈ 0.268 µg/mL) | 0.78 µM (≈ 0.268 µg/mL) | 25 µM (≈ 8.58 µg/mL) | 20 | 25 to 50 µM (≈ 8.58 to 17.2 µg/mL) | 20 | 
C[C@H]1COC2(CCN(c3nc(=O)c4cc(C(F)(F)F)cc([N+](=O)[O-])c4s3)CC2)O1 [BTZ-043] | 0.003 µM (≈ 0.00129 µg/mL) | 25 µM (≈ 10.8 µg/mL) | 25 µM (≈ 10.8 µg/mL) | 0.006 µM (≈ 0.00259 µg/mL) |  |  |  | 12.5 µM (≈ 5.39 µg/mL)
NNC(=O)c1ccncc1 [ISONIAZID] | 0.44 µM (≈ 0.0603 µg/mL) | 0.44 µM (≈ 0.0603 µg/mL) | 0.44 µM (≈ 0.0603 µg/mL) | 0.22 µM (≈ 0.0302 µg/mL) |  | 0.22 µM (≈ 0.0302 µg/mL) |  | 
CO[C@H]1/C=C/O[C@@]2(C)Oc3c(C)c(O)c4c(O)c(c(/C=N/N5CCN(C)CC5)c(O)c4c3C2=O)NC(=O)/C(C)=C\C=C\[C@H](C)[C@H](O)[C@@H](C)[C@@H](O)[C@@H](C)[C@H](OC(C)=O)[C@@H]1C [RIFAMPIN] |  | 0.005 µM (≈ 0.00411 µg/mL) | 0.005 µM (≈ 0.00411 µg/mL) |  |  | 0.005 µM (≈ 0.00411 µg/mL) |  | 
